These results are taken from ChEMBL document CHEMBL5131513, “Protein S-Nitrosation: Biochemistry, Identification, Molecular Mechanisms, and Therapeutic Applications” (J Med Chem, 2022).

Tested on in one assay: not listed separately
Briefly: Inhibition of recombinant nNOS (1 to 299 residues) (unknown origin)/biotin-tagged PSD95 (unknown origin) protein-protein interaction by DELFIA. Also on record: species or system Homo sapiens.
Details: not given
Consider `Oc1c(Cl)cc(Cl)cc1CNc1ccc2nn[nH]c2c1`, for which the IC50 – broadly, the point on the concentration scale where inhibition reaches its midpoint – amounted to 31 µM.

Tested on in a further assay: not listed separately
Briefly: Inhibition of human GSNOR.
Details: not given
`CCOc1cc([C@@H]2NC(=O)NC(c3cccnc3)=C2c2ccsc2)cc(C(=O)O)c1O` came in with a half-maximal inhibitory concentration (IC50) below 0.1 µM.
On the same count and under the same terms, the value for `Cc1nccn1-c1ccc(-c2ccc(CCC(=O)O)n2-c2ccc(S(N)(=O)=O)cc2)s1` was 0.023 µM; that for `Cc1cc(NS(C)(=O)=O)ccc1-n1c(CCC(=O)O)ccc1-c1ccc(-n2ccnc2C)s1` was 0.043 µM; that for `Cc1nccn1-c1ccc(-c2ccc(CCC(=O)O)n2-c2ccc(O)cc2)s1` was 0.036 µM.
Take `O=C(O)CCc1ccc(-c2ccc(-n3ccnc3)cc2)n1-c1ccc(O)cc1`: the IC50 turned out to be 0.039 µM.
In the case of `Cc1cc(S(N)(=O)=O)ccc1-n1c(CCC(=O)O)ccc1-c1ccc(-n2ccnc2C)s1`, half-maximal inhibition (IC50) required 0.022 µM.
Compound `Cc1cc(C(N)=O)ccc1-n1c(CCC(=O)O)ccc1-c1ccc(Br)cc1` registered an IC50 of 0.07 µM.
Still for that read-out and setting: the value for `O=C(O)c1ccc(C#Cc2ccc(O)cc2Cl)c(CCCn2cnnn2)c1` was below 0.05 µM; that for `Cc1cc(C(N)=O)ccc1-n1c(CCC(=O)O)ccc1-c1ccc(Cl)cc1O` was 0.055 µM.
The same measure, in the same setting: the value for `Cc1cc(NS(C)(=O)=O)ccc1-n1c(CCC(=O)O)ccc1-c1ccc(-n2ccnc2)cc1` was 0.029 µM; that for `COc1cc(Cl)ccc1-c1ccc(CCC(=O)O)n1-c1ccc(C(N)=O)cc1C` was 0.056 µM.
On the same count and under the same terms, the value for `Cc1cc(-n2ccnc2)ccc1-c1cc2sc(C(=O)O)cc2n1-c1ccc(C(N)=O)c(OCC(C)C)c1` was below 0.05 µM.
Take `NC(=O)c1ccc(-c2cc(C(=O)O)ccc2C#Cc2ccc(O)cc2Cl)cc1`: the IC50 was below 0.05 µM.

The species entered for the next assay is Homo sapiens. Briefly: Inhibition of nNOS (unknown origin)/CAPON (unknown origin) protein-protein interaction assessed as residual activity by coimmunoprecipitation assay relative to control.
Details: not given
The arrangement: concentration or dose not given beside the values.
Consider `CC(C)[C@@H](NC(=O)CC(=O)O)C(=O)O`, for which the Activity worked out at 75%.
`COC(=O)[C@H](NC(=O)CC(=O)O)C(C)C`: the Activity is 30.5%.
Still for that read-out and setting: the same measure for `COC(=O)CCC(=O)N[C@@H](C(=O)OC)C(C)C`: 61.8%.
For the compound `COC(=O)CC(=O)N[C@@H](C(=O)OC)C(C)C`, the Activity is 26.3%.
For the compound `COC(=O)[C@H](NCCC(=O)O)C(C)C`, the Activity is 87.8%.
Regarding `COC(=O)[C@H](NC(=O)Cc1nnn[nH]1)C(C)C`, the Activity turned out to be 49.4%.
Consider `COC(=O)[C@@H](Cc1ccccc1)NC(=O)CC(=O)O`, for which the Activity worked out at 76.6%.
On the same count and under the same terms, the value for `COC(=O)[C@@H](NC(=O)CC(=O)O)C(C)C` was 37.5%.

Tested on in a further assay: not listed separately
Briefly: Inhibition of NMDA-induced nNOS/PSD95 in rat cortical neurons preincubated for 30 mins followed by NMDA addition in presence of glutamate/glycine measured after 24 hrs by immunoprecipitation assay. The class given is cell-based. To be noted: cortical neuron.
On to `O=C(O)c1cc(NCc2cc(Cl)cc(Cl)c2O)ccc1O`, for which the IC50 amounted to 870 µM.
Still for that read-out and setting: the value for `O=C(O)c1ccc(NCc2cc(Cl)ccc2O)cc1O` was 40.1 µM.
On the same count and under the same terms, the value for `O=C(O)c1ccc(NCc2cc(Cl)cc(Cl)c2O)cc1O` was 0.082 µM; that for `O=C(O)c1ccc(NCCc2cc(Cl)cc(Cl)c2O)cc1O` was 597 µM; that for `O=C(O)c1ccc(NCc2cc(Br)ccc2O)cc1O` was 10.3 µM.
On the same count and under the same terms, the same measure for `COC(=O)c1ccc(NCc2cc(Cl)cc(Cl)c2O)cc1O`: 11.2 µM.
Take `O=C(O)c1ccc(NCc2cc(F)ccc2O)cc1O`: the IC50 was 0.88 µM.
